Source: DBAASP
Converted amounts (≈) assume the structure as drawn.

Columns and labels:
Assay in all cases: ≥ marks a high value that may be exact or a test limit, other limits are often not marked, values filed in µg/mL are converted to µM
Bacillus cereus = test system: Bacillus cereus
Escherichia coli = test system: Escherichia coli
Bacillus subtilis = test system: Bacillus subtilis
Staphylococcus aureus = test system: Staphylococcus aureus
[1] = test system: Acinetobacter baumannii ATCC 19606
[2] = test system: Escherichia coli KCTC 1682
[3] = test system: Pseudomonas aeruginosa KCTC 1637
[4] = test system: Salmonella typhimurium KCTC 1926
[5] = test system: Staphylococcus aureus KCTC 1621
[6] = test system: Staphylococcus epidermidis KCTC 1917

| Structure (SMILES) | MIC (Bacillus cereus) [µM] | MIC (Escherichia coli) [µM] | MIC (Bacillus subtilis) [µM] | MIC (Staphylococcus aureus) [µM] | other results |
| --- | --- | --- | --- | --- | --- |
| CC[C@H](C)[C@H](NC(=O)[C@@H]1CCCN1C(=O)[C@H](CO)NC(=O)[C@@H](NC(=O)[C@@H](NC(=O)[C@@H](NC(=O)[C@H](C)NC(=O)[C@H](CC(C)C)NC(=O)[C@H](CCCCN)NC(=O)[C@H](CO)NC(=O)[C@H](C)NC(=O)[C@@H](NC(=O)[C@H](CCCCN)NC(=O)[C@@H](NC(=O)[C@@H](NC(=O)[C@@H](N)CO)[C@@H](C)O)C(C)C)C(C)C)C(C)C)C(C)C)C(C)C)C(=O)N[C@@H](CO)C(=O)N[C@@H](CCCCN)C(=O)NCC(=O)N[C@@H](CO)C(=O)O [STVKVASKLAVVVSPISKGS] | ≥ 131 | > 131 | – | – | – |
| CC[C@H](C)[C@H](NC(=O)[C@@H]1CCCN1C(=O)[C@@H](NC(=O)[C@H](CO)NC(=O)[C@H](CO)NC(=O)[C@@H](N)CO)[C@@H](C)CC)C(=O)N[C@@H](CCCCN)C(=O)N[C@@H](CCSC)C(=O)N[C@H](C(=O)N[C@@H](CC(C)C)C(=O)N[C@H](C(=O)N[C@@H](CCCN=C(N)N)C(=O)N[C@@H](C)C(=O)N[C@@H](CC(C)C)C(=O)N[C@H](C(=O)N[C@@H](Cc1ccccc1)C(=O)N[C@H](C(=O)N[C@@H](CCCCN)C(=O)N[C@@H](CO)C(=O)NCC(=O)O)C(C)C)C(C)C)C(C)C)C(C)C [SSSIPIKMVLVRALVFVKSG] | ≥ 120 | > 120 | – | – | – |
| CC[C@H](C)[C@H](NC(=O)[C@@H]1CCCN1C(=O)[C@H](CC(C)C)NC(=O)[C@@H](N)Cc1ccccc1)C(=O)N[C@@H](C)C(=O)NCC(=O)N[C@@H](CCCCN)C(=O)N[C@@H](CC(C)C)C(=O)N[C@@H](CC(C)C)C(=O)N[C@@H](CO)C(=O)NCC(=O)N[C@@H](CC(C)C)C(=O)N[C@@H](CO)C(=O)NCC(=O)N[C@@H](CC(C)C)C(=O)N[C@@H](CC(C)C)C(=O)O [FLPIAGKLLSGLSGLL] | – | – | – | – | MIC [1]: > 62.5 µM |
| CC[C@H](C)[C@H](NC(=O)[C@H](Cc1c[nH]c2ccccc12)NC(=O)[C@H](CO)NC(=O)[C@H](CO)NC(=O)[C@H](CC(C)C)NC(=O)[C@H](C)NC(=O)[C@@H]1CCCN1C(=O)[C@H](CC(C)C)NC(=O)CN)C(=O)N[C@@H](CCCCN)C(=O)N[C@@H](CCCN=C(N)N)C(=O)N[C@@H](CCCCN)C(=O)N[C@@H](CCCN=C(N)N)C(=O)N[C@@H](CCC(N)=O)C(=O)N[C@@H](CCC(N)=O)C(N)=O [GLPALSSWIKRKRQQ] | – | 176 (≈ 311 µg/mL) | 22.1 (≈ 39 µg/mL) | 8.26 (≈ 14.6 µg/mL) | – |
| CC[C@H](C)[C@H](NC(=O)[C@H](CCC(=O)O)NC(=O)[C@H](CCC(=O)O)NC(=O)[C@H](CO)NC(=O)[C@H](CC(C)C)NC(=O)[C@H](CC(C)C)NC(=O)[C@H](Cc1c[nH]c2ccccc12)NC(=O)[C@H](CC(N)=O)NC(=O)[C@H](CCC(=O)O)NC(=O)CNC(=O)[C@H](CC(N)=O)NC(=O)[C@H](CCCCN)NC(=O)[C@H](CC(C)C)NC(=O)[C@H](CO)NC(=O)[C@H](Cc1ccc(O)cc1)NC(=O)[C@@H]1CCCN1)C(=O)N[C@H](C(=O)N[C@@H](CCCN=C(N)N)C(=O)N[C@@H](Cc1ccc(O)cc1)C(=O)N1CCC[C@H]1C(=O)O)[C@@H](C)CC [PYSLKNGENWLLSEEIIRYP] | ≥ 106 | > 106 | – | – | – |
| CC[C@H](C)[C@H](NC(=O)[C@@H](NC(=O)[C@@H](NC(=O)[C@H](CCCCN)NC(=O)[C@@H](N)Cc1ccccc1)C(C)C)C(C)C)C(=O)N[C@@H](CO)C(=O)N[C@@H](CCCCN)C(=O)N1CCC[C@H]1C(=O)NCC(=O)N[C@@H](CC(C)C)C(=O)N[C@@H](CO)C(=O)N[C@H](C(=O)N[C@@H](CCCN=C(N)N)C(=O)N[C@H](C(=O)NCC(=O)N[C@H](C(=O)N[C@@H](C)C(=O)N[C@@H](CC(C)C)C(=O)N[C@H](C(=O)N[C@H](C(=O)O)[C@@H](C)O)C(C)C)[C@@H](C)O)C(C)C)C(C)C [FKVVISKPGLSVRVGTALVT] | ≥ 61.8 | > 61.8 | – | – | – |
| CC[C@H](C)[C@H](N)C(=O)N[C@@H](CC(C)C)C(=O)NCC(=O)N[C@@H](CCCCN)C(=O)N[C@H](C(=O)N[C@@H](CC(C)C)C(=O)N[C@@H](CCC(=O)O)C(=O)NCC(=O)N[C@H](C(=O)N[C@@H](CCCCN)C(=O)N[C@@H](CO)C(=O)N[C@@H](CC(C)C)C(=O)N[C@@H](Cc1ccccc1)C(N)=O)[C@@H](C)CC)[C@@H](C)CC [ILGKILEGIKSLF] | – | – | – | – | MIC [2]: 16 µM (≈ 22.9 µg/mL); MIC [3]: 16 µM (≈ 22.9 µg/mL); MIC [4]: 16 µM (≈ 22.9 µg/mL); MIC [5]: 4 µM (≈ 5.72 µg/mL); MIC [6]: ≥ 32 µM |
| CC(C)C[C@H](NC(=O)[C@@H](N)Cc1ccccc1)C(=O)NCC(=O)N[C@@H](CCCCN)C(=O)N[C@H](C(=O)N[C@@H](Cc1ccccc1)C(=O)N[C@@H](CCCCN)C(=O)NCC(=O)N[C@@H](C)C(=O)N[C@@H](CO)C(=O)N[C@@H](CCCCN)C(=O)N[C@H](C(=O)N[C@H](C(=O)N1CCC[C@H]1C(=O)N[C@@H](C)C(=O)N[C@H](C(=O)N[C@@H](Cc1ccccc1)C(=O)NCC(=O)N[C@@H](CCCCN)C(=O)N[C@H](C(=O)O)C(C)C)C(C)C)C(C)C)C(C)C)C(C)C [FLGKVFKGASKVVPAVFGKV] | ≥ 123 | > 123 | – | > 123 | – |
| CSCC[C@H](NC(=O)[C@H](CO)NC(=O)[C@H](Cc1ccccc1)NC(=O)[C@@H](NC(=O)[C@H](C)NC(=O)[C@@H]1CCCN1C(=O)[C@H](Cc1ccccc1)NC(=O)[C@@H](NC(=O)[C@H](CCCCN)NC(=O)[C@H](CO)NC(=O)[C@H](C)NC(=O)[C@H](CC(C)C)NC(=O)[C@H](CCCCN)NC(=O)CNC(=O)[C@@H](NC(=O)[C@H](C)NC(=O)[C@@H](N)CO)C(C)C)C(C)C)C(C)C)C(=O)N[C@H](C(=O)N[C@H](C(=O)N[C@@H](CCCCN)C(=O)O)[C@@H](C)O)C(C)C [SAVGKLASKVFPAVFSMVTK] | ≥ 124 | > 124 | – | – | – |

Continued, in another order:

| MIC (Bacillus cereus) [µM] | MIC (Escherichia coli) [µM] | MIC (Bacillus subtilis) [µM] | MIC (Staphylococcus aureus) [µM] | Structure (SMILES) | other results |
| --- | --- | --- | --- | --- | --- |
| ≥ 120 | 120 (≈ 256 µg/mL) | – | – | CC[C@H](C)[C@H](NC(=O)[C@H](CCSC)NC(=O)[C@H](CO)NC(=O)[C@@H](NC(=O)[C@H](CC(C)C)NC(=O)[C@H](CO)NC(=O)[C@@H]1CCCN1C(=O)[C@@H](NC(=O)[C@@H](NC(=O)[C@H](CCCCN)NC(=O)[C@H](CO)NC(=O)[C@H](C)NC(=O)[C@@H](NC(=O)[C@H](CCCN=C(N)N)NC(=O)CNC(=O)[C@@H](NC(=O)[C@H](Cc1ccccc1)NC(=O)[C@H](CO)NC(=O)[C@@H](N)CC(C)C)C(C)C)C(C)C)C(C)C)C(C)C)[C@@H](C)CC)C(=O)N[C@@H](CCCCN)C(=O)O [LSFVGRVASKVVPSLISMIK] | – |
| – | 3.5 (≈ 6.25 µg/mL) | 0.897 (≈ 1.6 µg/mL) | 1.74 (≈ 3.1 µg/mL) | CC[C@H](C)[C@H](NC(=O)[C@H](CC(C)C)NC(=O)[C@H](C)NC(=O)[C@H](CO)NC(=O)[C@H](CC(C)C)NC(=O)CN)C(=O)N[C@@H](CO)C(=O)N[C@@H](Cc1c[nH]c2ccccc12)C(=O)N[C@H](C(=O)N[C@@H](CCCCN)C(=O)N[C@@H](CCCN=C(N)N)C(=O)N[C@@H](CCCCN)C(=O)N[C@@H](CCCN=C(N)N)C(=O)N[C@@H](CCC(N)=O)C(=O)N[C@@H](CCC(N)=O)C(N)=O)[C@@H](C)CC [GLSALISWIKRKRQQ] | – |
| – | 27.1 (≈ 41.7 µg/mL) | 0.423 (≈ 0.65 µg/mL) | 0.845 (≈ 1.3 µg/mL) | CC[C@H](C)[C@H](NC(=O)[C@H](CC(C)C)NC(=O)[C@H](C)NC(=O)[C@@H]1CCCN1C(=O)[C@H](CC(C)C)NC(=O)CN)C(=O)N[C@@H](CO)C(=O)N[C@@H](Cc1c[nH]c2ccccc12)C(=O)N[C@H](C(=O)N[C@@H](CCCCN)C(=O)N[C@@H](CCCN=C(N)N)C(=O)N[C@@H](CCCCN)C(=O)N[C@@H](CCCN=C(N)N)C(N)=O)[C@@H](C)CC [GLPALISWIKRKR] | – |
| ≥ 58.2 | 14.6 (≈ 32 µg/mL) | – | > 58.2 | CC(C)C[C@H](NC(=O)[C@@H](N)Cc1ccccc1)C(=O)NCC(=O)N[C@@H](CCCCN)C(=O)N[C@H](C(=O)N[C@@H](Cc1ccccc1)C(=O)N[C@@H](CCCCN)C(=O)N[C@@H](CCCCN)C(=O)N[C@@H](C)C(=O)N[C@@H](CO)C(=O)N[C@@H](CCCCN)C(=O)N[C@H](C(=O)N[C@@H](Cc1ccccc1)C(=O)N1CCC[C@H]1C(=O)N[C@@H](C)C(=O)N[C@H](C(=O)N[C@@H](Cc1ccccc1)C(=O)NCC(=O)N[C@@H](CCCCN)C(=O)N[C@H](C(=O)O)C(C)C)C(C)C)C(C)C)C(C)C [FLGKVFKKASKVFPAVFGKV] | – |
| – | 49.5 (≈ 88.9 µg/mL) | 3.12 (≈ 5.6 µg/mL) | 3.12 (≈ 5.6 µg/mL) | CC[C@H](C)[C@H](NC(=O)[C@H](CC(C)C)NC(=O)[C@H](C)NC(=O)[C@@H]1CCCN1C(=O)[C@H](CC(C)C)NC(=O)CN)C(=O)N[C@@H](CO)C(=O)N[C@@H](Cc1c[nH]c2ccccc12)C(=O)N[C@H](C(=O)N[C@@H](CCCCN)C(=O)N[C@@H](CCCN=C(N)N)C(=O)N[C@@H](CCCCN)C(=O)N[C@@H](CCCN=C(N)N)C(=O)N[C@@H](CCC(N)=O)C(=O)N[C@@H](CCC(N)=O)C(N)=O)[C@@H](C)CC [GLPALISWIKRKRQQ] | – |
| – | 15 (≈ 28.7 µg/mL) | ≥ 35 | – | CC[C@H](C)[C@H](N)C(=O)N[C@@H](Cc1c[nH]c2ccccc12)C(=O)N[C@@H](CC(N)=O)C(=O)N[C@@H](CCCCN)C(=O)N[C@H](C(=O)N[C@@H](C)C(=O)N[C@@H](CCCCN)C(=O)N[C@@H](CO)C(=O)N[C@H](C(=O)NCC(=O)N[C@@H](CCCCN)C(=O)N[C@H](C(=O)N[C@@H](CC(C)C)C(=O)N[C@@H](CCC(=O)O)C(=O)N[C@@H](CCCCN)C(=O)N[C@@H](C)C(=O)N[C@@H](CC(C)C)C(N)=O)C(C)C)[C@@H](C)CC)[C@@H](C)CC [IWNKIAKSIGKVLEKAL] | – |
| – | 12.5 (≈ 21.5 µg/mL) | 22.5 (≈ 38.6 µg/mL) | – | CC[C@H](C)[C@H](N)C(=O)N[C@@H](CC(N)=O)C(=O)N[C@@H](Cc1c[nH]c2ccccc12)C(=O)N[C@@H](CCCCN)C(=O)N[C@@H](CCCCN)C(=O)N[C@H](C(=O)N[C@@H](Cc1ccccc1)C(=O)N[C@@H](CCC(=O)O)C(=O)N[C@@H](CCCCN)C(=O)N[C@H](C(=O)N[C@@H](CO)C(=O)N[C@@H](CC(N)=O)C(=O)N[C@@H](CC(C)C)C(=O)N[C@H](C(N)=O)C(C)C)C(C)C)[C@@H](C)CC [INWKKIFEKVSNLV] | – |
